Here are results for 8 molecules from PubChem BioAssay (NCI).

Among the test systems are NCI/ADR-RES ovarian; U251 CNS; TK-10 renal; HS 578T breast; SK-MEL-5 melanoma; HCT-116 colon; KM12 colon; MDA-MB-435; HT29 colon; MDA-N; NCI-H460 lung; HOP-92 NSCLC; MOLT-4 leukemia; HCC-2998 colon; RPMI-8226 leukemia; NCI-H522 lung; SK-MEL-2 melanoma; A498 renal; T-47D breast.
What all share (assay): NCI tumour cell line growth inhibition, 48 h

SMILES strings stand for the structures.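 Grown in 96-well plates, cells were treated for 48 hours with each compound at five concentrations. Insufficient inhibition: endpoint recorded as highest concentration tested. TGI denotes the concentration required for complete inhibition of growth.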

Consider `COc1cc2c[n+](C)c3c4cc5c(cc4ccc3c2cc1OC)OCO5`, for which the TGI in the assay with NCI/ADR-RES ovarian was greater than 100 µM; in the assay on U251 CNS, 2.13 µM; with TK-10 renal, greater than 93.1 µM; with HS 578T breast, greater than 100 µM; in the assay with SK-MEL-5 melanoma it was 23.2 µM; with HCT-116 colon it was 18.9 µM. For the same molecule, the TGI in the assay with KM12 colon is 7.21 µM; in the assay on MDA-MB-435, greater than 100 µM; in the assay on HT29 colon it was 4.6 µM; in the assay with MDA-N, greater than 100 µM; with NCI-H460 lung, 14.7 µM; in the assay on HOP-92 NSCLC, 6.39 µM. The TGI in the assay on MOLT-4 leukemia came out at 13.5 µM; with HCC-2998 colon, 7.52 µM; in the assay with RPMI-8226 leukemia, 23.5 µM; in the assay on NCI-H522 lung, 2.06 µM; in the assay on SK-MEL-2 melanoma, 6.97 µM; with A498 renal, 2.67 µM.

As to `CC(=O)O[C@@H]1CC[C@@]2(C)C(CC[C@H]3[C@@H]4CC[C@H]([C@H](C)CCc5nc6ccc(C)cc6[nH]5)[C@@]4(C)CC[C@@H]32)C1` (stereo partly drawn), the TGI in the assay with NCI/ADR-RES ovarian, in the assay on U251 CNS, with TK-10 renal, in the assay on HS 578T breast, in the assay with SK-MEL-5 melanoma and in the assay with HCT-116 colon was greater than 100 µM throughout. Moreover, the TGI in the assay on T-47D breast was 4.63 µM; with KM12 colon it was 31.7 µM; with MDA-MB-435, greater than 100 µM; in the assay with HT29 colon it was 70.7 µM; in the assay on HOP-92 NSCLC, greater than 100 µM; in the assay on MOLT-4 leukemia, greater than 100 µM. The TGI was greater than 100 µM in the assay on HCC-2998 colon; 84.3 µM in the assay with RPMI-8226 leukemia; greater than 100 µM in the assay on NCI-H522 lung; greater than 100 µM with SK-MEL-2 melanoma; greater than 100 µM with A498 renal.

`Cc1cc([C@H](C#N)c2nc3ccccc3[nH]2)nc(Cl)n1`: the TGI with NCI/ADR-RES ovarian, with U251 CNS, in the assay with TK-10 renal, in the assay with HS 578T breast, with SK-MEL-5 melanoma and in the assay with HCT-116 colon was greater than 100 µM each time. The TGI with T-47D breast is 89.5 µM; with KM12 colon it was 28.1 µM; in the assay on MDA-MB-435, greater than 100 µM; with HT29 colon it was greater than 100 µM; in the assay with NCI-H460 lung, 63.5 µM; in the assay on HOP-92 NSCLC, greater than 100 µM. The TGI in the assay with MOLT-4 leukemia is greater than 100 µM; in the assay with HCC-2998 colon, 42.8 µM; in the assay with RPMI-8226 leukemia, greater than 100 µM; with SK-MEL-2 melanoma, greater than 100 µM; in the assay on A498 renal, greater than 100 µM.

Take `O=C1CC(CC(O)[C@@H]2CCCC[C@@H]2O)CC(=O)N1c1ccccc1` (stereo partly drawn): the TGI in the assay with NCI/ADR-RES ovarian, with U251 CNS, in the assay on TK-10 renal, in the assay on HS 578T breast, with SK-MEL-5 melanoma and with HCT-116 colon was greater than 100 µM each time. Besides, the TGI in the assay with KM12 colon, in the assay with MDA-MB-435, in the assay on HT29 colon, with MDA-N, with NCI-H460 lung and with HOP-92 NSCLC was greater than 100 µM each time. Also, the TGI with MOLT-4 leukemia, in the assay with HCC-2998 colon, in the assay with RPMI-8226 leukemia, with NCI-H522 lung and in the assay with A498 renal was greater than 100 µM throughout.

`CCCCCCCCCCCCCCCCCCNc1ccn(C2OC(COP(=O)(O)OC3CC(n4cc(F)c(=O)[nH]c4=O)OC3COP(=O)(O)OCC3OC(n4ccc(N)nc4=O)C(O)C3O)C(O)C2O)c(=O)n1` (stereo not drawn): the TGI in the assay with NCI/ADR-RES ovarian was 53.5 µM; in the assay with U251 CNS it was greater than 50.4 µM; with TK-10 renal, greater than 100 µM; with HS 578T breast it was greater than 100 µM; with SK-MEL-5 melanoma it was greater than 48.8 µM; with HCT-116 colon it was greater than 60.7 µM. In addition, the TGI in the assay with T-47D breast was greater than 100 µM; with KM12 colon, 41.5 µM; in the assay on MDA-MB-435, greater than 62.5 µM; in the assay with HT29 colon it was greater than 59.4 µM; with NCI-H460 lung it was greater than 32.7 µM; in the assay on HOP-92 NSCLC it was greater than 100 µM. Also, the TGI in the assay with MOLT-4 leukemia is 29.2 µM; with HCC-2998 colon, 27.3 µM; in the assay with RPMI-8226 leukemia it was 71.4 µM; in the assay with NCI-H522 lung, greater than 69.7 µM; in the assay with SK-MEL-2 melanoma, 37.3 µM; in the assay on A498 renal it was greater than 100 µM.

Turning to `O=C(O)c1ccc(P(=O)(O)c2ccc(C(=O)O)cc2Br)c(Br)c1`, the TGI in the assay on TK-10 renal, in the assay on HS 578T breast, in the assay on SK-MEL-5 melanoma, with HCT-116 colon, in the assay on KM12 colon and in the assay on MDA-MB-435 was greater than 100 µM each time. In addition, the TGI in the assay with MDA-N, with HOP-92 NSCLC, in the assay with MOLT-4 leukemia, with HCC-2998 colon, in the assay on RPMI-8226 leukemia and in the assay with NCI-H522 lung was greater than 100 µM in each case. The TGI in the assay on SK-MEL-2 melanoma is greater than 100 µM.

Consider `CCOC(=O)CCC(NC(=O)c1ccc(CNc2nc3ccccc3nc2C(=O)OCC)cc1)C(=O)OCC` (stereo not drawn), for which the TGI in the assay with NCI/ADR-RES ovarian, in the assay with U251 CNS, in the assay with TK-10 renal, with HS 578T breast, in the assay with SK-MEL-5 melanoma and in the assay with HCT-116 colon was greater than 100 µM in each case. The TGI in the assay on KM12 colon is greater than 100 µM; in the assay on MDA-MB-435, 50.3 µM; in the assay with HT29 colon it was greater than 100 µM; in the assay on MDA-N, greater than 100 µM; in the assay with HOP-92 NSCLC, greater than 100 µM; in the assay with MOLT-4 leukemia it was greater than 100 µM. In addition, the TGI in the assay with RPMI-8226 leukemia, in the assay on NCI-H522 lung, in the assay on SK-MEL-2 melanoma and with A498 renal was greater than 100 µM each time.

As for `COC(=O)Nc1nc2ccc(S(=O)(=O)NC(CC(C)C)C(=O)OC)cc2[nH]1` (stereo not drawn), the TGI is 59.6 µM in the assay with NCI/ADR-RES ovarian; greater than 100 µM in the assay with U251 CNS; 31.9 µM with TK-10 renal; 3.47 µM in the assay with HS 578T breast; 4.21 µM in the assay on SK-MEL-5 melanoma; 19.1 µM in the assay on HCT-116 colon. Also, the TGI is greater than 100 µM in the assay on T-47D breast; 12.6 µM in the assay with KM12 colon; 8.06 µM with HT29 colon; 2.18 µM in the assay with MDA-N; greater than 100 µM in the assay on NCI-H460 lung; greater than 100 µM with HOP-92 NSCLC. In addition, the TGI in the assay with MOLT-4 leukemia was 29.2 µM; with RPMI-8226 leukemia it was greater than 100 µM; in the assay on NCI-H522 lung it was 0.888 µM; with SK-MEL-2 melanoma, greater than 100 µM; in the assay on A498 renal, 28 µM.
